Test in all cases: MIC against a single isolate (Example 26)
What all share (type): cell-based

One test concerns Candida Albicans. The settings on record: read-out: C. albicans MIC. The protocol: (§1) Bacterial strains evaluated in this study include Escherichia coli, Klebsiella spp, Serratia marcescens, Proteus mirabilis/vulgaris, Citrobacter spp, Providencia spp, Morganella morganii, Pseudomonas aeruginosa, Staphylococcus aureus (MRSA only), and Enterococcus faecalis. Nu-8 test solutions are adjusted to pH 3.5 with citric acid, and MIC is evaluated per the CLSI methods in Mueller-Hinton broth supplemented accordingly to facilitate growth of specific strains.
(§2) MIC was determined as per Example 9 using LAI-101, LAI-102, Nu-10, LAI-105, LAI-106, Nu-3, and Nu-8 against a single isolate of Escherichia coli. Pseudomonas aeruginosa, Staphylococcus aureus (MRSA only), and Candida Albicans. For all microbe species, the LAI-101, LAI-102, Nu-10, LAI-105, and LAI-106 all perform at least as well as, and in many experiments better than, Nu-8 and Nu-3, which are both already quite active compounds.

In a further test the test system is Pseudomonas aeruginosa. The settings on record: read-out: P. aeruginosa MIC. The protocol:
as §1, §2

The test system of test [1] is Staphylococcus aureus (MRSA only). The following applies: read-out: S. aureus MIC. The protocol: as §1, §2
Another test deals with Escherichia coli. The settings on record: read-out: E. coli MIC. The procedure: as §1, §2

Read-outs that look alike come from different tables or passages of the source.

Regarding `Nc1ncnc2c1ncn2[C@H]1C[C@H](OP(=O)(O)OC2CCCCC2)[C@@H](COP(=O)(O)OC2CCCCC2)O1` [LAI-105, ((2R,3S,5R)-5-(6-amino-9H-purin-9-yl)-3-(((cyclohexyloxy)(hydroxy)phosphoryl)oxy)tetrahydrofuran-2-yl)methyl cyclohexyl hydrogen phosphate], the MIC (usually the smallest concentration in the dilution series that meets the test's criterion for growth inhibition) in the test with Candida Albicans (single isolate) was over 5000 µg/mL; in the test with Pseudomonas aeruginosa (single isolate), 5000 µg/mL; in test [1] (single isolate), over 5000 µg/mL; in the test on Escherichia coli (single isolate), over 5000 µg/mL.
As for `Nc1ccn([C@H]2C[C@H](OP(=O)(O)OCc3ccccc3)[C@@H](COP(=O)(O)OCc3ccccc3)O2)c(=O)n1` [LAI-102, ((2R,3S,5R)-5-(4-amino-2-oxopyrimidin-1(2H)-yl)-3-(((benzyloxy)(hydroxy)-phosphoryl)oxy)tetrahydrofuran-2-yl)methyl benzyl hydrogen phosphate], the MIC with Candida Albicans is 50000 µg/mL; in the test on Pseudomonas aeruginosa, 25000 µg/mL; in test [1], 25000 µg/mL; in the test with Escherichia coli it was 5000 µg/mL.
`CCCCOP(=O)(O)OC[C@H]1O[C@@H](n2cnc3c(N)ncnc32)[C@H](OC)[C@@H]1OP(=O)(O)OCCCC` [LAI-106, ((2R,3R,4R,5R)-5-(6-amino-9H-purin-9-yl)-3-((butoxy(hydroxy)phosphoryl)oxy)-4-methoxytetrahydrofuran-2-yl)methyl butyl hydrogen phosphate]: the MIC with Candida Albicans (single isolate) is 25000 µg/mL; in the test with Pseudomonas aeruginosa (single isolate) it was 5000 µg/mL; in test [1] (single isolate), 5000 µg/mL; in the test on Escherichia coli (single isolate) it was 1000 µg/mL.
Turning to `CC(C)COP(=O)(O)OC[C@H]1O[C@@H](n2ccc(N)nc2=O)C[C@@H]1OP(=O)(O)OCC(C)C` [LAI-101, ((2R,3S,5R)-5-(4-amino-2-oxopyrimidin-1(2H)-yl)-3-((hydroxy(isobutoxy)phosphoryl)-oxy)tetrahydrofuran-2-yl)methyl isobutyl hydrogen phosphate], the MIC in the test on Candida Albicans was 50000 µg/mL; in the test with Pseudomonas aeruginosa, 5000 µg/mL; in test [1], 5000 µg/mL; with Escherichia coli it was 5000 µg/mL.
